As a reminder, the IC50 is the point on the concentration scale where inhibition reaches its midpoint.

This note sets out measurements from patent publication US10308667B2, “Oxadiazolopyridine derivatives for use as ghrelin O-acyl transferase (GOAT) inhibitors” (Boehringer Ingelheim International GmbH, priority 2016, dated 2019).

Sequence of human GOAT (Q96T53 whole entry): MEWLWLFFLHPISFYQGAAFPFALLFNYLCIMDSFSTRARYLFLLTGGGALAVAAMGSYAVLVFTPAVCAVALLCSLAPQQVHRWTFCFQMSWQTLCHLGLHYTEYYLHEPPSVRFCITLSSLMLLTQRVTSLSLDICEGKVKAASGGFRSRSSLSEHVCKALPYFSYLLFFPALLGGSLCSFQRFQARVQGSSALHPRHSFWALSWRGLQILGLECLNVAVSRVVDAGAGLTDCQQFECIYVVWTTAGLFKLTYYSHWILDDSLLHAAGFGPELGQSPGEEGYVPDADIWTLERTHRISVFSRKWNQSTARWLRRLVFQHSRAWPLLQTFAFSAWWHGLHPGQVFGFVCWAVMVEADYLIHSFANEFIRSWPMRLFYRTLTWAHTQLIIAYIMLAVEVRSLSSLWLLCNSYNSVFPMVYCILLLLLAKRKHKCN

The assay addresses human GOAT (Homo sapiens (Human), UniProt Q96T53). The assay can be described thus: Determination of hGOAT Activity in HEK293 Cells after Incubation with Test Compound. In kind it is cell-based. The conditions noted are these: HEK293 cells stably transfected with preproghrelin and human GOAT; octanoate-BSA 100 μM; acyl-ghrelin in medium by ELISA after 5 hours. The procedure:
Determination of hGOAT Activity in HEK293 Cells after Incubation with Test Compound
HEK293 cells stably transfected with two expression vectors, one coding for preproghrelin cDNA and a second for the expression of human GOATcDNA are used as a cellular model. After feeding the cells with octanoic acid for 5 hours, acyl-ghrelin is measured in cell culture medium by an ELISA procedure.
Cellline: Hek293 hGOAT/PPGhrl Clone #1B8Sodium octanoate, Sigma, Cat.-No. C5038
BD Poly-D-Lysin 384-well Plates, black-clear polystyrene BD Bioscience Cat.-No. […] ELISA human acylated Ghrelin Kit purchased from Bertin Pharman (detailed composition of buffers e.g. wash-puffer, ELISA buffer not known)
Cells are plated with a density of 5000 cells/well in 384-well poly-D-lysin plates and incubated for 1 day at 37° C., 5% CO2 in DMEM medium, 10% FCS, 1×NEAA, Puromycin (0.5 μg/ml) and G418 (1 mg/ml). Then the medium is changed to a identical medium without FCS and containing Octanoate-BSA (final concentration 100 μM each) and compound in DMSO (final DMSO concentration 0.3%). After incubation for 5 hours acylghrelin in the medium is measured by ELISA
The medium sample is diluted 1:25 in Elisa buffer, A 25 ul aliquot is transferred to a 384-well ELISA plate previously washed 4 times with 100 μL wash buffer, and 25 μl tracer-solution is added. After incubation overnight (˜20 h) at 4° C. temperature the plate is washed 4 times with 100 μl wash-buffer per well. Finally 50 μl Ellman's reagent is added to each well and the plate is incubated in the dark for 20 minutes. The absorbance is measured at 405 nm in an Envision multilabel reader and the amount of acylated ghrelin is calculated according to a acylated ghrelin standard curve provided in the same plate.
The analysis of the data is performed by calculation of the percentage of acyl-ghrelin produced in the presence of test compound compared to the amount of acyl-ghrelin produced in the vehicle control samples. An inhibitor of the GOAT enzyme will give values between 100% CTL (no inhibition) and 0% CTL (complete inhibition). IC50 values are calculated with Assay Explorer or other suited software based on curve fitting of results of 8 different compound concentrations.
For orientation: ELISA stands for enzyme-linked immunosorbent assay.
Consider `COc1ccc(Cc2c(C)nc3nonc3c2N)nc1` [Example 1, 6-(5-Methoxy-pyridin-2-ylmethyl)-5-methyl-[1,2,5]oxadiazolo[3,4-b]pyridin-7-ylamine], for which the IC50 worked out at 1400 pM.

With `Cc1nc2nonc2c(N)c1Cc1cc(C#N)c(C(F)(F)F)cn1` [Example 2, 2-(7-Amino-5-methyl-[1,2,5]oxadiazolo[3,4-b]pyridin-6-ylmethyl)-5-trifluoromethyl-isonicotinonitrile], the IC50 turned out to be 3600 pM.

Compound `Cc1nc2nonc2c(N)c1Cc1cccc(Cl)n1` [Example 3, 6-(6-Chloro-pyridin-2-ylmethyl)-5-methyl-[1,2,5]oxadiazolo[3,4-b]pyridin-7-ylamine] came in with an IC50 of 460 pM.

`Cc1nc2nonc2c(N)c1Cc1ccc(C#N)cn1` [Example 4, 6-(7-Amino-5-methyl-[1,2,5]oxadiazolo[3,4-b]pyridin-6-ylmethyl)-nicotinonitrile] came in with an IC50 of 1700 pM.

For `Cc1nc2nonc2c(N)c1Cc1ccc(Br)cn1` [Example 5, 6-(5-Bromo-pyridin-2-ylmethyl)-5-methyl-[1,2,5]oxadiazolo[3,4-b]pyridin-7-ylamine], 240 pM corresponded to half-maximal inhibition (IC50).

As for `Cc1nc2nonc2c(N)c1Cc1ccc(C(F)(F)F)cn1` [Example 6, 5-Methyl-6-(5-trifluoromethyl-pyridin-2-ylmethyl)-[1,2,5]oxadiazolo[3,4-b]pyridin-7-ylamine], inhibition was half-maximal at 610 pM (IC50).

`Cc1nc2nonc2c(N)c1Cc1cccc(Br)n1` [Example 7, 6-(6-Bromo-pyridin-2-ylmethyl)-5-methyl-[1,2,5]oxadiazolo[3,4-b]pyridin-7-ylamine] displayed an IC50 of 950 pM.

As for `Cc1nc2nonc2c(N)c1Cc1ccc(Cl)cn1` [Example 8, 6-(5-Chloro-pyridin-2-ylmethyl)-5-methyl-[1,2,5]oxadiazolo[3,4-b]pyridin-7-ylamine], the IC50 stood at 420 pM.

Turning to `Cc1nc2nonc2c(N)c1Cc1ccc(C(F)F)cn1` [Example 9, 6-(5-Difluoromethyl-pyridin-2-ylmethyl)-5-methyl-[1,2,5]oxadiazolo[3,4-b]pyridin-7-ylamine], half-maximal inhibition (IC50) required 440 pM.

With `COC(=O)Cc1ccc(Cc2c(C)nc3nonc3c2N)nc1` [Example 10, [6-(7-Amino-5-methyl-[1,2,5]oxadiazolo[3,4-b]pyridin-6-ylmethyl)-pyridin-3-yl]-acetic Acid Methyl Ester], the IC50 stood at 13000 pM. This IC50 lies about 30-fold higher than the previous one.

On to `Cc1nc2nonc2c(N)c1Cc1ccc(C(C)(F)F)cn1` [Example 11, 6-[5-(1,1-Difluoro-ethyl)-pyridin-2-ylmethyl]-5-methyl-[1,2,5]oxadiazolo[3,4-b]pyridin-7-ylamine], for which the IC50 is 130 pM.

The compound `Cc1nc2nonc2c(N)c1Cc1ccc(F)cn1` [Example 12, 6-(5-Fluoro-pyridin-2-ylmethyl)-5-methyl-[1,2,5]oxadiazolo[3,4-b]pyridin-7-ylamine] came in with an IC50 of 6500 pM.

In turn, `Cc1nc2nonc2c(N)c1Cc1cccc(F)n1` [Example 13, 6-(6-Fluoro-pyridin-2-ylmethyl)-5-methyl-[1,2,5]oxadiazolo[3,4-b]pyridin-7-ylamine] registered an IC50 of 4400 pM. This IC50 and that of the compound before are within 1.5-fold of each other.

Compound `Cc1nc2nonc2c(N)c1Cc1ccc(OC(F)F)cn1` [Example 14, 6-(5-Difluoromethoxy-pyridin-2-ylmethyl)-5-methyl-[1,2,5]oxadiazolo[3,4-b]pyridin-7-ylamine] displayed an IC50 of 670 pM.

Consider `Cc1nc2nonc2c(N)c1Cc1ccc(OC(F)F)c(Br)n1` [Example 15, 6-(6-Bromo-5-difluoromethoxy-pyridin-2-ylmethyl)-5-methyl-[1,2,5]oxadiazolo[3,4-b]pyridin-7-ylamine], for which the IC50 was 38 pM.

The compound `CSc1cccc(Cc2c(C)nc3nonc3c2N)n1` [Example 16, 5-Methyl-6-(6-methylsulfanyl-pyridin-2-ylmethyl)-[1,2,5]oxadiazolo[3,4-b]pyridin-7-ylamine] had an IC50 of 280 pM.

`Cc1nc2nonc2c(N)c1Cc1ccc(OC(F)(F)F)cn1` [Example 17, 5-Methyl-6-(5-trifluoromethoxy-pyridin-2-ylmethyl)-[1,2,5]oxadiazolo[3,4-b]pyridin-7-ylamine] had an IC50 of 220 pM.

As for `Cc1nc2nonc2c(N)c1Cc1ccc2c(n1)OCCO2` [Example 18, 6-(2,3-Dihydro-[1,4]dioxino[2,3-b]pyridin-6-ylmethyl)-5-methyl-[1,2,5]oxadiazolo[3,4-b]pyridin-7-ylamine], half-maximal inhibition (IC50) was put at 320 pM.

Consider `Cc1nc2nonc2c(N)c1Cc1cc(Cl)c(C(F)(F)F)cn1` [Example 20, 6-(4-Chloro-5-trifluoromethyl-pyridin-2-ylmethyl)-5-methyl-[1,2,5]oxadiazolo[3,4-b]pyridin-7-ylamine], for which half-maximal inhibition (IC50) required 170 pM.

Compound `Cc1nc2nonc2c(N)c1Cc1ccc(C#N)c(Cl)n1` [Example 24, 6-(7-Amino-5-methyl-[1,2,5]oxadiazolo[3,4-b]pyridin-6-ylmethyl)-2-chloro-nicotinonitrile] registered an IC50 of 120 pM.

Take `Cc1nc2nonc2c(N)c1Cc1ccc(F)c(C#N)n1` [Example 25, 6-(7-Amino-5-methyl-[1,2,5]oxadiazolo[3,4-b]pyridin-6-ylmethyl)-3-fluoro-pyridine-2-carbonitrile]: the IC50 was determined as 4400 pM. Against the preceding compound, the IC50 is about 37-fold higher.

In turn, `Cc1nc2nonc2c(N)c1Cc1cc(C(F)(F)F)ccn1` [Example 26, 5-Methyl-6-(4-trifluoromethyl-pyridin-2-ylmethyl)-[1,2,5]oxadiazolo[3,4-b]pyridin-7-ylamine] had an IC50 of 8800 pM.

In the case of `Cc1nc2nonc2c(N)c1Cc1cc(C#N)ccn1` [Example 28, 2-(7-Amino-5-methyl-[1,2,5]oxadiazolo[3,4-b]pyridin-6-ylmethyl)-isonicotinonitrile], half-maximal inhibition (IC50) was put at 48000 pM.

In the case of `Cc1nc2nonc2c(N)c1Cc1cc(C(N)=O)ccn1` [Example 29, 2-(7-Amino-5-methyl-[1,2,5]oxadiazolo[3,4-b]pyridin-6-ylmethyl)-isonicotinamide], the IC50 stood at 16000 pM.

In turn, `Cc1nc2nonc2c(N)c1Cc1ncc(Cl)cn1` [Example 30, 6-(5-Chloro-pyrimidin-2-ylmethyl)-5-methyl-[1,2,5]oxadiazolo[3,4-b]pyridin-7-ylamine] showed an IC50 of 2700 pM.

Compound `Cc1nc2nonc2c(N)c1Cc1ccc(OC(F)(F)F)c(C#N)n1` [Example 33, 6-(7-Amino-5-methyl-[1,2,5]oxadiazolo[3,4-b]pyridin-6-ylmethyl)-3-trifluoromethoxy-pyridine-2-carbonitrile] displayed an IC50 of 300 pM.

For the compound `Cc1nc2nonc2c(N)c1Cc1nccc(C(F)(F)F)n1` [Example 34, 5-Methyl-6-(4-trifluoromethyl-pyrimidin-2-ylmethyl)-[1,2,5]oxadiazolo[3,4-b]pyridin-7-ylamine], half-maximal inhibition (IC50) was put at 3200 pM.

`Cc1nc2nonc2c(N)c1Cc1ncc(C(F)(F)F)cn1` [Example 35, 5-methyl-6-[5-(trifluoromethyl)pyrimidin-2-yl]methyl-[1,2,5]oxadiazolo[3,4-b]pyridin-7-amine]: 1800 pM corresponded to half-maximal inhibition (IC50).

`Cc1nc2nonc2c(N)c1Cc1cc(C(F)(F)F)cc(C#N)n1` [Example 36, 6-(7-amino-5-methyl-[1,2,5]oxadiazolo[3,4-b]pyridin-6-ylmethyl)-4-(trifluoromethyl)pyridine-2-carbonitrile] showed an IC50 of 6900 pM.

Take `Cc1nc2nonc2c(N)c1Cc1cc(Cl)cc(C#N)n1` [Example 38, 6-(7-amino-5-methyl-[1,2,5]oxadiazolo[3,4-b]pyridin-6-ylmethyl)-4-chloropyridine-2-carbonitrile]: inhibition was half-maximal at 2600 pM (IC50).

Compound `Cc1nc2nonc2c(N)c1Cc1ccc(C2CC2)cn1` [Example 39, 6-[(5-cyclopropylpyridin-2-yl)methyl]-5-methyl-[1,2,5]oxadiazolo[3,4-b]pyridin-7-amine] came in with an IC50 of 180 pM.

In turn, `Cc1nc2nonc2c(N)c1Cc1ccc(OC2CC2)cn1` [Example 41, 6-[(5-cyclopropoxypyridin-2-yl)methyl]-5-methyl-[1,2,5]oxadiazolo[3,4-b]pyridin-7-amine] yielded an IC50 of 1200 pM.

Take `Cc1nc2nonc2c(N)c1Cc1ccc(C2CC2)c(C#N)n1` [Example 42, 6-(7-amino-5-methyl-[1,2,5]oxadiazolo[3,4-b]pyridin-6-ylmethyl)-3-cyclopropylpyridine-2-carbonitrile]: inhibition was half-maximal at 73 pM (IC50).

As to `Cc1nc2nonc2c(N)c1Cc1ccc(C#N)c(C2CC2)n1` [Example 43, 6-(7-amino-5-methyl-[1,2,5]oxadiazolo[3,4-b]pyridin-6-ylmethyl)-2-cyclopropylpyridine-3-carbonitrile], the IC50 came out at 370 pM.

`CSc1ccc(Cc2c(C)nc3nonc3c2N)nc1` [Example 44, 5-Methyl-6-(5-methylsulfanyl-pyridin-2-ylmethyl)-[1,2,5]oxadiazolo[3,4-b]pyridin-7-ylamine] displayed an IC50 of 170 pM.
